Broadly, the IC50 is the concentration that gives 50% inhibition.

Where only a bound is given, the exact number is not on record here.

Consider 52 compounds from BindingDB's records for doi:10.7270/Q2KP80J0 (The Scripps Research Institute Molecular Screening Center, 2007).

The experiment addresses T1, Ephrin type-B receptor 4 (Homo sapiens, UniProt P54760).
T1 sequence (P54760 whole entry): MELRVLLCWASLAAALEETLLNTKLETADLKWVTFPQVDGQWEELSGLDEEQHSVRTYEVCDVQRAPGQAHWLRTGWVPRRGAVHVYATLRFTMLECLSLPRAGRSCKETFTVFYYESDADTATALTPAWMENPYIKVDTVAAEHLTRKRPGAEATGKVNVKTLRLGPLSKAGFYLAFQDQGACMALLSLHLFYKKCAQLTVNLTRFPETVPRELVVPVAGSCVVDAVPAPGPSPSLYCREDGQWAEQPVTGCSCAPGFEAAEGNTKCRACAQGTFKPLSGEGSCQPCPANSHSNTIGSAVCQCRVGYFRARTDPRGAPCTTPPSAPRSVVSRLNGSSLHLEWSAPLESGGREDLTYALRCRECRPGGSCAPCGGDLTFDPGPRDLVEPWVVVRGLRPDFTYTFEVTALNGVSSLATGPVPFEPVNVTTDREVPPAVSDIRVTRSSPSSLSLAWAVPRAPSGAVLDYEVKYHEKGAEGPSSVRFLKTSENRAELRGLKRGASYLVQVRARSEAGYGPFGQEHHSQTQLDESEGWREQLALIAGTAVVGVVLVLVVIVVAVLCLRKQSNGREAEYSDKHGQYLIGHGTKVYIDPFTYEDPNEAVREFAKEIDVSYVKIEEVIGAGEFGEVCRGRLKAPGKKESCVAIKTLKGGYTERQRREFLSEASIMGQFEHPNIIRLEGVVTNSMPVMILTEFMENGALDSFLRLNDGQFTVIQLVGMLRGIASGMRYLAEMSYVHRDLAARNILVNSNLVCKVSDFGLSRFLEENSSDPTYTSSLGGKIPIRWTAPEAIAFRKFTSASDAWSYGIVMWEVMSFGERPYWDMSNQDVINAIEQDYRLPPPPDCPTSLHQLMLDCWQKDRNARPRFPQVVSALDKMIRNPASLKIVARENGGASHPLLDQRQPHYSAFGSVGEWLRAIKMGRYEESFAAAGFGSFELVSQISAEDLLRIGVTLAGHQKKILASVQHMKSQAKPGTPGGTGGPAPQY
As to the kind of experiment: blockers of EphB4 ligand binding – biochemical, TNYL-RAW peptide displacement, dose response (AID 835).
Consider `Cc1ccc(-c2ccc(C(=O)O)[nH]2)cc1` [5-(4-methylphenyl)-1H-pyrrole-2-carboxylic acid], for which the concentration for half-maximal inhibition (IC50) was > 79.4 µM.

In the case of `Oc1c(CN2CCCCC2)cc(COCc2ccccc2)c2cccnc12` [5-(benzoxymethyl)-7-(piperidinomethyl)quinolin-8-ol], the IC50 is > 79.4 µM.

Turning to `COC(=O)c1ccc(COc2ccc3c(C)c(C)c(=O)oc3c2C)o1` [5-[(2-keto-3,4,8-trimethyl-chromen-7-yl)oxymethyl]furan-2-carboxylic acid methyl ester], the concentration for half-maximal inhibition (IC50) is > 79.4 µM.

Take `CCCc1nnc(SCc2ccc(C(=O)OC)o2)n1N` [5-[[(4-amino-5-propyl-1,2,4-triazol-3-yl)thio]methyl]-2-furancarboxylic acid methyl ester]: the IC50 is > 79.4 µM.

Regarding `Cc1onc(-c2ccccc2)c1C(=O)Nc1ccc(S(=O)(=O)NC2=NCCCCC2)cc1` [5-methyl-3-phenyl-N-[4-(3,4,5,6-tetrahydro-2H-azepin-7-ylsulfamoyl)phenyl]-1,2-oxazole-4-carboxamide], the IC50 is > 79.4 µM.

For the compound `O=C(c1cnc2ccc(S(=O)(=O)N3CCC4(CC3)OCCO4)cc2c1O)N1CCOCC1` [6-(1,4-dioxa-8-azaspiro[4.5]dec-8-ylsulfonyl)-3-(morpholin-4-ylcarbonyl)quinolin-4(1H)-one], the half-maximal inhibitory concentration (IC50) was > 79.4 µM.

For `Cc1cc(NC(c2ccc(Cl)cc2)c2ccc3cccnc3c2O)no1` (configuration not stated) [7-[(4-chlorophenyl)-[(5-methyl-1,2-oxazol-3-yl)amino]methyl]quinolin-8-ol], the IC50 is > 79.4 µM.

Turning to `O=C1CN(C(=O)CN2CCCCC2)C(c2ccccc2)c2cc(Br)ccc2N1` (configuration not stated) [7-bromanyl-5-phenyl-4-(2-piperidin-1-ylethanoyl)-3,5-dihydro-1H-1,4-benzodiazepin-2-one], the 50% inhibitory concentration (IC50) was > 79.4 µM.

With `CCc1cccc2c(C#N)cn(CC(=O)N3CCOCC3)c12` [7-ethyl-1-[2-(4-morpholinyl)-2-oxoethyl]-1H-indole-3-carbonitrile], the half-maximal inhibitory concentration (IC50) was > 79.4 µM.

Consider `Cc1cc(N2CCN(c3ccccn3)CC2)n2cc(-c3ccccc3)nc2n1` [7-methyl-2-phenyl-5-(4-pyridin-2-ylpiperazin-1-yl)imidazo[1,2-a]pyrimidine], for which the IC50 is > 79.4 µM.

As for `Cn1cc(Cl)c(C(=O)OCC(=O)Nc2ccccc2)n1` [(2-anilino-2-oxoethyl) 4-chloro-1-methylpyrazole-3-carboxylate], the IC50 is > 79.4 µM.

In the case of `Cc1cc(OC(=O)c2ccco2)c2c3c(c(=O)oc2c1)CCCC3` [(3-methyl-6-oxidanylidene-7,8,9,10-tetrahydrobenzo[c]chromen-1-yl) furan-2-carboxylate], the half-inhibitory concentration (IC50) is > 79.4 µM.

Regarding `COc1ccccc1C1CC(c2c(O)nc3ccc(Cl)cc3c2-c2ccccc2)=NN1S(C)(=O)=O` (configuration not stated) [(3Z)-6-chloranyl-3-[5-(2-methoxyphenyl)-1-methylsulfonyl-pyrazolidin-3-ylidene]-4-phenyl-quinolin-2-one], the concentration for half-maximal inhibition (IC50) was > 79.4 µM.

For the compound `CN1C(=O)S/C(=C/c2cccnc2)C1=O` [(5E)-3-methyl-5-(3-pyridinylmethylidene)thiazolidine-2,4-dione], the IC50 is > 79.4 µM.

As for `O=C(/C=C/c1ccccc1Cl)NCc1ccccc1` [(E)-3-(2-chlorophenyl)-N-(phenylmethyl)-2-propenamide], the IC50 was > 79.4 µM.

On to `O=C(O)/C(=C\c1ccco1)NC(=O)c1cccc2ccccc12` [(E)-3-(furan-2-yl)-2-(naphthalene-1-carbonylamino)prop-2-enoic acid], for which the 50% inhibitory concentration (IC50) was > 79.4 µM.

As for `O=C(/C=C/c1cccc([N+](=O)[O-])c1)NCCN1CCOCC1` [(E)-N-(2-morpholin-4-ylethyl)-3-(3-nitrophenyl)prop-2-enamide], the half-maximal inhibitory concentration (IC50) is > 79.4 µM.

`CCOC(=O)c1c(C)oc2c1c1c(c3ccccc32)OCN(Cc2cccnc2)C1` [MLS000043717]: the 50% inhibitory concentration (IC50) was > 79.4 µM.

On to `CCCCNC(=O)C1C2C=CC3(CN(Cc4ccccc4Cl)C(=O)C13)O2` (configuration not stated) [MLS000044497], for which the IC50 is > 79.4 µM.

For the compound `CCOC(=O)C1=C(c2ccccc2)N2C=CS(=O)(=O)NC2S1` (configuration not stated) [MLS000048572], the IC50 was > 79.4 µM.

Turning to `CN(c1ccccc1C(=O)Nc1ccccc1C(=O)NCc1ccco1)S(C)(=O)=O` [MLS000049900], the IC50 is > 79.4 µM.

For the compound `O=C(NCCCN1CCCC1=O)NC12CC3CC(CC(C3)C1)C2` [MLS000050547], the IC50 is > 79.4 µM.

Take `CCCn1c(NC(=O)C2COc3ccccc3O2)nc2ccccc21` (configuration not stated) [MLS000053418]: the half-inhibitory concentration (IC50) is > 79.4 µM.

For the compound `O=C(NC(Cc1ccccc1)c1nc2ccccc2[nH]1)C1CC(=O)N(c2ccc3c(c2)OCCO3)C1` (configuration not stated) [MLS000053466], the half-maximal inhibitory concentration (IC50) is > 79.4 µM.

As for `CCn1c(CSc2nccn2C)nc2cc(C(=O)O)ccc21` [MLS000058666], the IC50 was > 79.4 µM.

As to `CCOc1cc(N2CCOCC2)c(OCC)cc1NC(=O)COc1cccc2cccnc12` [MLS000060380], the IC50 was > 79.4 µM.

As to `O=C(CSc1nnnn1Cc1ccccc1)Nc1ccc2c(c1)OCO2` [MLS000067975], the 50% inhibitory concentration (IC50) was > 79.4 µM.

`CCC(C)(C)NC(=O)C(c1ccco1)N(C(=O)c1csnn1)c1cccc(F)c1` (configuration not stated) [MLS000074093]: the concentration for half-maximal inhibition (IC50) is > 79.4 µM.

For `CC1(C)Cc2ccccc2-c2nnc(SCC(=O)Nc3nc4ccccc4s3)n21` [MLS000077330], the concentration for half-maximal inhibition (IC50) is > 79.4 µM.

`O=C(CN(Cc1cccs1)C(=O)CSc1nnc(COc2ccccc2)o1)NC1CCCC1` [MLS000077370]: the IC50 was > 79.4 µM.

For `O=S1(=O)c2cccc3cccc(c23)N1Cc1nnc(-c2ccccc2Br)o1` [MLS000081705], the concentration for half-maximal inhibition (IC50) is > 79.4 µM.

Regarding `COc1cccc(OC)c1-c1nn2c(-c3cc(-c4ccccc4)n[nH]3)nnc2s1` [MLS000083027], the IC50 is > 79.4 µM.

Take `CC(=O)Nc1cccc(NC(=O)CSc2nnc(Cc3cccn3C)n2-c2ccc(C)cc2)c1` [MLS000092946]: the half-maximal inhibitory concentration (IC50) is > 79.4 µM.

As to `CC(=O)Nc1ccc(OCC=C(Cl)Cl)cc1` [MLS000107919], the IC50 was > 79.4 µM.

Regarding `O=C(Nc1ccccc1C(=O)N1CCOCC1)c1ccncc1` [MLS000109827], the half-maximal inhibitory concentration (IC50) was > 79.4 µM.

Consider `O=C(Nc1ccc2c(c1)OCO2)C1CC(c2ccc(F)cc2)=NO1` (configuration not stated) [MLS000520439], for which the 50% inhibitory concentration (IC50) was > 79.4 µM.

For `COc1ccc(Cn2nnnc2C(c2cc3ccc(OC)cc3nc2O)N2CCC(C)CC2)cc1` (configuration not stated) [MLS000523343], the IC50 was > 79.4 µM.

As for `COc1ccc(C(C)NC(=O)c2ccccc2)cc1` (configuration not stated) [MLS000525960], the concentration for half-maximal inhibition (IC50) was > 79.4 µM.

With `COCc1nnc(NC(=O)CC(c2ccccc2)c2ccccc2)s1` [MLS000528014], the IC50 is > 79.4 µM.

Regarding `CN(C(=O)N1CCN(c2ccccn2)CC1)c1ccccc1` [MLS000534907], the IC50 was > 79.4 µM.

Regarding `O=C(N/N=C/c1ccncc1)c1cc([N+](=O)[O-])cc([N+](=O)[O-])c1O` [MLS000541056], the IC50 was > 79.4 µM.

On to `CCOc1ccc(C(CCc2ccccc2)NC(=O)c2ccccc2F)cc1OCC` (configuration not stated) [MLS000544814], for which the IC50 is > 79.4 µM.

Take `O=[N+]([O-])/C=C/c1cn(Cc2ccc(F)cc2)c2ccccc12` [MLS000577100]: the concentration for half-maximal inhibition (IC50) is > 79.4 µM.

Consider `CCOc1ccc(NC(=O)C(C)Oc2ccccc2C(=O)Nc2ccc(C)c(Cl)c2)cc1` (configuration not stated) [MLS000581136], for which the IC50 was > 79.4 µM.

Take `COCCCNc1c(O)nc2cccc3c2c1-c1ccccc1C3=O` [SMR000017250]: the IC50 worked out at 5.3 µM.

Turning to `O=C1c2ccccc2-c2onc3ccc(NCCCn4ccnc4)c1c23` [SMR000044769], the IC50 was determined as 0.8 µM.

As for `O=C(Nc1nc2n(n1)C(c1ccc(Cl)cc1)CC(c1ccc(Cl)cc1)N2)c1ccco1` (configuration not stated) [SMR000045014], the IC50 was > 79.4 µM.

Regarding `CCn1c(CSc2nnc(-c3cccnc3)n2-c2ccccc2C)nc2cc(C(=O)O)ccc21` [SMR000067019], the IC50 was 11.1 µM.

As for `O=C1Nc2ccccc2/C1=N/Nc1nc2ccccc2s1` [SMR000123161], the IC50 was > 79.4 µM.

`Cc1[nH]c2ccccc2c1/C=C1\N=C(c2ccc(C(F)(F)F)cc2)OC1=O` [SMR000152363]: the IC50 was > 79.4 µM.

Turning to `Oc1ccccc1C=Nn1c(-c2cccs2)n[nH]c1=S` [SMR000168763], the half-maximal inhibitory concentration (IC50) is > 79.4 µM.

In the case of `COC(=O)CSC1=NC2=C(C(=O)CCC2)C(c2ccc(C)cc2)C1C#N` (configuration not stated) [methyl 2-[[3-cyano-4-(4-methylphenyl)-5-oxo-4,6,7,8-tetrahydro-1H-quinolin-2-yl]sulfanyl]acetate], the half-maximal inhibitory concentration (IC50) was > 79.4 µM.
